Source: patent US20200289523A1, “FIXED DOSED PHARMACEUTICAL COMPOSITION COMPRISING AMIODIPINE, CANDESARTAN CILEXETIL AND HYDROCHLOROTHIAZIDE FOR THE TREATMENT OF HYPERTENSION” (MIDAS PHARMA GMBH, priority 2016, published 2020)

What was measured:
[1] = Solubility in various standard dissolution media (FIG. 1); assay type: physicochemical; details: at low pH-values
[2] = In-vitro dissolution of tablets (Ph. Eur. 2.9.3/USP <711>); assay type: physicochemical; details: on changes of the composition of the formulation
Description: The in-vitro dissolution of tablets was analyzed according to Ph.

| solubility [1] | SMILES | dissolution profile of Hydrochlorothiazide [2] |
| --- | --- | --- |
| barely soluble | CCOc1nc2cccc(C(=O)OC(C)OC(=O)OC3CCCCC3)c2n1Cc1ccc(-c2ccccc2-c2nnn[nH]2)cc1 (centres unmarked) [Candesartan cilexetil] |  |
|  | NS(=O)(=O)c1cc2c(cc1Cl)NCNS2(=O)=O [Hydrochlorothiazide, 6-chloro-1,1-dioxo-3,4-dihydro-2H-1,2,4-benzothiadiazine-7-sulfonamide] | not influenced by changes of the composition |
